Results: PubChem BioAssay (NCI)
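Test compounds were applied to cells in 96-well plates for 48 hours at 5 doses. The concentration for 50% growth inhibition is given as GI50. TGI: total growth inhibition.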

Columns and labels:
Assay in all cases: NCI-60 cell line screen, 48 h
OVCAR-8 ovarian = tested on: OVCAR-8 ovarian
A498 renal = tested on: A498 renal
NCI-H522 lung = tested on: NCI-H522 lung
HCT-15 colon = tested on: HCT-15 colon
KM12 colon = tested on: KM12 colon
PC-3 prostate = tested on: PC-3 prostate
SR leukemia = tested on: SR leukemia
OVCAR-3 ovarian = tested on: OVCAR-3 ovarian
K-562 leukemia = tested on: K-562 leukemia
EKVX NSCLC = tested on: EKVX NSCLC
IGROV1 ovarian = tested on: IGROV1 ovarian
RXF 393 renal = tested on: RXF 393 renal
MOLT-4 leukemia = tested on: MOLT-4 leukemia
MDA-MB-435 = tested on: MDA-MB-435
OVCAR-5 ovarian = tested on: OVCAR-5 ovarian
CCRF-CEM leukemia = tested on: CCRF-CEM leukemia
SK-MEL-2 melanoma = tested on: SK-MEL-2 melanoma
NCI/ADR-RES ovarian = tested on: NCI/ADR-RES ovarian
COLO 205 colon = tested on: COLO 205 colon
MDA-MB-231 breast = tested on: MDA-MB-231 breast
786-0 renal = tested on: 786-0 renal
UO-31 renal = tested on: UO-31 renal
T-47D breast = tested on: T-47D breast
HCC-2998 colon = tested on: HCC-2998 colon
NCI-H226 lung = tested on: NCI-H226 lung
SF-268 CNS = tested on: SF-268 CNS
M14 melanoma = tested on: M14 melanoma
SK-OV-3 ovarian = tested on: SK-OV-3 ovarian
LOX IMVI melanoma = tested on: LOX IMVI melanoma
MCF7 breast = tested on: MCF7 breast
SNB-19 CNS = tested on: SNB-19 CNS
SK-MEL-28 melanoma = tested on: SK-MEL-28 melanoma
NCI-H23 lung = tested on: NCI-H23 lung
SF-295 CNS = tested on: SF-295 CNS
SN12C renal = tested on: SN12C renal
U251 CNS = tested on: U251 CNS
DU-145 prostate = tested on: DU-145 prostate
MALME-3M melanoma = tested on: MALME-3M melanoma
SK-MEL-5 melanoma = tested on: SK-MEL-5 melanoma
SW-620 colon = tested on: SW-620 colon
HOP-92 NSCLC = tested on: HOP-92 NSCLC
HCT-116 colon = tested on: HCT-116 colon
HT29 colon = tested on: HT29 colon
NCI-H460 lung = tested on: NCI-H460 lung
A549 NSCLC = tested on: A549 NSCLC
UACC-62 melanoma = tested on: UACC-62 melanoma
ACHN renal = tested on: ACHN renal
OVCAR-4 ovarian = tested on: OVCAR-4 ovarian
SNB-75 CNS = tested on: SNB-75 CNS
SF-539 CNS = tested on: SF-539 CNS
UACC-257 melanoma = tested on: UACC-257 melanoma
CAKI-1 renal = tested on: CAKI-1 renal
HOP-62 NSCLC = tested on: HOP-62 NSCLC
MDA-N = tested on: MDA-N
HS 578T breast = tested on: HS 578T breast
BT-549 breast = tested on: BT-549 breast
TK-10 renal = tested on: TK-10 renal
HL-60(TB) leukemia = tested on: HL-60(TB) leukemia
RPMI-8226 leukemia = tested on: RPMI-8226 leukemia

CN(C)CCOC(=O)COc1ccc(Cl)cc1
TGI (OVCAR-8 ovarian): > 100 µM | TGI (A498 renal): > 100 µM | TGI (NCI-H522 lung): > 100 µM | TGI (HCT-15 colon): > 100 µM | TGI (KM12 colon): > 100 µM | TGI (PC-3 prostate): > 100 µM | TGI (SR leukemia): > 100 µM | TGI (OVCAR-3 ovarian): > 100 µM | TGI (K-562 leukemia): > 100 µM | TGI (EKVX NSCLC): > 100 µM | TGI (IGROV1 ovarian): > 100 µM | TGI (RXF 393 renal): > 100 µM | TGI (MOLT-4 leukemia): > 100 µM | TGI (MDA-MB-435): > 100 µM | TGI (OVCAR-5 ovarian): > 100 µM | TGI (CCRF-CEM leukemia): > 100 µM | TGI (SK-MEL-2 melanoma): > 100 µM | TGI (NCI/ADR-RES ovarian): > 100 µM | TGI (COLO 205 colon): > 100 µM | TGI (MDA-MB-231 breast): > 100 µM | TGI (786-0 renal): > 100 µM | TGI (UO-31 renal): > 100 µM | TGI (T-47D breast): > 100 µM | TGI (HCC-2998 colon): > 100 µM | TGI (NCI-H226 lung): > 100 µM | TGI (SF-268 CNS): > 100 µM | TGI (M14 melanoma): > 100 µM | TGI (SK-OV-3 ovarian): > 100 µM | TGI (LOX IMVI melanoma): > 100 µM | TGI (MCF7 breast): > 100 µM | TGI (SNB-19 CNS): > 100 µM | TGI (SK-MEL-28 melanoma): > 100 µM | TGI (NCI-H23 lung): > 100 µM | TGI (SF-295 CNS): > 100 µM | TGI (SN12C renal): > 100 µM | TGI (U251 CNS): > 100 µM | TGI (DU-145 prostate): > 100 µM | TGI (MALME-3M melanoma): > 100 µM | TGI (SK-MEL-5 melanoma): > 100 µM | TGI (SW-620 colon): > 100 µM | TGI (HOP-92 NSCLC): > 100 µM | TGI (HCT-116 colon): > 100 µM | TGI (HT29 colon): > 100 µM | TGI (NCI-H460 lung): > 100 µM | TGI (A549 NSCLC): > 100 µM | TGI (UACC-62 melanoma): > 100 µM | TGI (ACHN renal): > 100 µM | TGI (OVCAR-4 ovarian): > 100 µM | TGI (SNB-75 CNS): > 100 µM | TGI (SF-539 CNS): > 100 µM | TGI (UACC-257 melanoma): > 100 µM | TGI (CAKI-1 renal): > 100 µM | TGI (HOP-62 NSCLC): > 100 µM | TGI (MDA-N): > 100 µM

C#CCN1C(=O)/C(=c2\sc3n(c2=O)C2C(NN=3)N(CC)C(=O)N2CC)c2ccccc21 (stereo not drawn)
GI50 (OVCAR-8 ovarian): 1.07 µM | TGI (OVCAR-8 ovarian): > 100 µM | GI50 (HS 578T breast): 0.368 µM | TGI (HS 578T breast): 32.8 µM | GI50 (A498 renal): 0.186 µM | TGI (A498 renal): 0.728 µM | GI50 (NCI-H522 lung): 0.447 µM | TGI (NCI-H522 lung): > 76 µM | GI50 (HCT-15 colon): 0.394 µM | TGI (HCT-15 colon): > 100 µM | GI50 (KM12 colon): 0.46 µM | TGI (KM12 colon): > 100 µM | GI50 (PC-3 prostate): 0.463 µM | TGI (PC-3 prostate): > 100 µM | GI50 (BT-549 breast): 0.568 µM | TGI (BT-549 breast): 12.4 µM | GI50 (SR leukemia): 0.344 µM | TGI (SR leukemia): > 100 µM | GI50 (OVCAR-3 ovarian): 0.316 µM | TGI (OVCAR-3 ovarian): 1.69 µM | GI50 (K-562 leukemia): 0.342 µM | TGI (K-562 leukemia): > 100 µM | GI50 (EKVX NSCLC): 1.8 µM | TGI (EKVX NSCLC): > 100 µM | GI50 (TK-10 renal): 14.1 µM | TGI (TK-10 renal): 51.4 µM | GI50 (IGROV1 ovarian): 0.589 µM | TGI (IGROV1 ovarian): > 91.1 µM | GI50 (RXF 393 renal): 0.354 µM | TGI (RXF 393 renal): 2.28 µM | GI50 (MOLT-4 leukemia): 0.708 µM | TGI (MOLT-4 leukemia): > 100 µM | GI50 (MDA-MB-435): 0.214 µM | TGI (MDA-MB-435): 0.507 µM | GI50 (HL-60(TB) leukemia): 0.271 µM | TGI (HL-60(TB) leukemia): 0.775 µM | GI50 (OVCAR-5 ovarian): 1.21 µM | TGI (OVCAR-5 ovarian): > 100 µM | GI50 (CCRF-CEM leukemia): 0.381 µM | TGI (CCRF-CEM leukemia): > 100 µM | GI50 (SK-MEL-2 melanoma): 3.21 µM | TGI (SK-MEL-2 melanoma): > 100 µM | GI50 (NCI/ADR-RES ovarian): 0.712 µM | TGI (NCI/ADR-RES ovarian): 21.9 µM | GI50 (COLO 205 colon): 0.987 µM | TGI (COLO 205 colon): > 100 µM | GI50 (MDA-MB-231 breast): 2.07 µM | TGI (MDA-MB-231 breast): 40 µM | GI50 (786-0 renal): 0.669 µM | TGI (786-0 renal): 22.5 µM | GI50 (UO-31 renal): 0.673 µM | TGI (UO-31 renal): > 100 µM | GI50 (T-47D breast): 0.639 µM | TGI (T-47D breast): > 100 µM | GI50 (HCC-2998 colon): 1.19 µM | TGI (HCC-2998 colon): > 100 µM | GI50 (NCI-H226 lung): 1.25 µM | TGI (NCI-H226 lung): > 83.2 µM | GI50 (SF-268 CNS): 5.5 µM | TGI (SF-268 CNS): > 100 µM | GI50 (M14 melanoma): 0.283 µM | GI50 (SK-OV-3 ovarian): 3.11 µM | TGI (SK-OV-3 ovarian): > 100 µM | GI50 (LOX IMVI melanoma): 0.73 µM | TGI (LOX IMVI melanoma): > 100 µM | GI50 (MCF7 breast): 0.377 µM | TGI (MCF7 breast): > 100 µM | GI50 (SNB-19 CNS): 0.811 µM | TGI (SNB-19 CNS): > 100 µM | GI50 (SK-MEL-28 melanoma): 0.734 µM | TGI (SK-MEL-28 melanoma): > 100 µM | GI50 (NCI-H23 lung): 1.51 µM | TGI (NCI-H23 lung): 37.2 µM | GI50 (SF-295 CNS): 0.529 µM | TGI (SF-295 CNS): 8.83 µM | GI50 (SN12C renal): 0.797 µM | TGI (SN12C renal): > 100 µM | GI50 (U251 CNS): 0.648 µM | TGI (U251 CNS): > 47 µM | GI50 (DU-145 prostate): 1.04 µM | TGI (DU-145 prostate): > 38.6 µM | GI50 (MALME-3M melanoma): 0.595 µM | TGI (MALME-3M melanoma): > 100 µM | GI50 (SK-MEL-5 melanoma): 0.529 µM | TGI (SK-MEL-5 melanoma): > 85.9 µM | GI50 (RPMI-8226 leukemia): 0.375 µM | GI50 (SW-620 colon): 0.422 µM | TGI (SW-620 colon): > 100 µM | GI50 (HOP-92 NSCLC): 1.55 µM | TGI (HOP-92 NSCLC): 78.7 µM | GI50 (HCT-116 colon): 0.376 µM | TGI (HCT-116 colon): > 100 µM | GI50 (HT29 colon): 0.387 µM | TGI (HT29 colon): > 100 µM | GI50 (NCI-H460 lung): 0.439 µM | TGI (NCI-H460 lung): > 100 µM | GI50 (A549 NSCLC): 0.968 µM | TGI (A549 NSCLC): > 100 µM | GI50 (UACC-62 melanoma): 0.453 µM | TGI (UACC-62 melanoma): > 74.1 µM | GI50 (ACHN renal): 0.65 µM | TGI (ACHN renal): > 58.2 µM | GI50 (OVCAR-4 ovarian): > 27.3 µM | TGI (OVCAR-4 ovarian): > 100 µM | GI50 (SNB-75 CNS): 0.25 µM | TGI (SNB-75 CNS): 0.997 µM | GI50 (SF-539 CNS): 0.295 µM | TGI (SF-539 CNS): 1.4 µM | GI50 (UACC-257 melanoma): 49.2 µM | TGI (UACC-257 melanoma): > 100 µM | GI50 (CAKI-1 renal): 0.459 µM | TGI (CAKI-1 renal): > 54.2 µM | GI50 (HOP-62 NSCLC): 0.868 µM | TGI (HOP-62 NSCLC): > 52.6 µM
